Legend:
[1] = Plasma experiment (protein coagulation in anticoagulant blood); settings: added to 1 mL fresh human anticoagulant blood in test tube
Method: Plasma experiment: A plasma experiment was performed using absolute ethanol and the sclerosing agent solution of Embodiment 1. As shown in A of FIG. 3, 1 mL of fresh human anticoagulant blood was taken. As shown in C of FIG. 3, absolute ethanol was added to a test tube, and as shown in B of FIG. 3, the sclerosing agent solution of Embodiment 1 was added to a test tube.

rabbit ear edge = assay: Animal experiment: rabbit ear edge injection; type: in vivo; settings: 0.5 mL injected, New Zealand white rabbits
Method: Animal experiment: A first experimental group: the experimental subjects were 20 New Zealand white rabbits with the body weight of 1.5 kg, injected with 0.5 mL of absolute ethanol solution. A second experimental group: the experimental subjects were 20 New Zealand white rabbits with the body weight of 1.5 kg, injected with 0.5 mL of the foam sclerosing agent of Embodiment 1. The edges of ears of the experimental subjects in the first experimental group and the second experimental group were all intact before the experiment.

## CCO [absolute ethanol]
[1]
  coagulation of the protein in the plasma: coagulated the protein in the plasma
Rabbit ear edge; 3 days
  reaction of ear edge 3 days after the injection: the whole ear has obvious hematoma
Rabbit ear edge; 7 days
  reaction of ear edge 7 days after the injection: the swelling is reduced
Rabbit ear edge; 25 days
  reaction of ear edge 25 days after the injection: the local blood vessels and some normal tissues are destroyed, resulting in tissue defect of the rabbit ear edge
Rabbit ear edge; immediately after injection
  reaction of ear edge immediately after the injection: extensive and large-area hematoma appears on the ear edge immediately

Reference: patent publication US11975099B2, “Ethanol foam sclerosing agent for treating vascular anomalies and preparation method thereof” (QILU HOSPITAL OF SHANDONG UNIVERSITY, priority 2019, dated 2024)
